Reference: ChEMBL document CHEMBL1201862, “PubChem BioAssay data set” (2004)
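In this assay, cells in 96-well plates receive the compound at five concentrations for 48 hours. Endpoints are linearly interpolated between the surrounding concentrations. GI50 = concentration required for 50% inhibition of growth.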 The source made the active and inactive calls. No stated cut-off is given here; in the data, active = GI50 up to about 1.1 µM and inactive = higher.

Legend:
Assay in all cases: growth of human tumour cells (NCI), 48 h
[1] = system: SF-295
[2] = system: PC-3
[3] = system: OVCAR-3
[4] = system: RPMI-8226
[5] = system: EKVX
[6] = system: NCI/ADR-RES
[7] = system: IGROV-1
[8] = system: KM12
[9] = system: 786-0
[10] = system: NCI-H23
[11] = system: NCI-H226
[12] = system: T47D
[13] = system: M14
[14] = system: HL-60
[15] = system: OVCAR-4
[16] = system: MDA-MB-231
[17] = system: CCRF-CEM
[18] = system: UACC-257
[19] = system: LOX IMVI
[20] = system: SN12C
[21] = system: A498
[22] = system: MCF7
[23] = system: MDA-MB-435
[24] = system: SF-539
[25] = system: COLO 205
[26] = system: SNB-19
[27] = system: BT-549
[28] = system: SK-MEL-28
[29] = system: K562
[30] = system: SK-OV-3
[31] = system: HOP-62
[32] = system: UO-31
[33] = system: CAKI-1
[34] = system: SW-620
[35] = system: HOP-92
[36] = system: SK-MEL-5
[37] = system: OVCAR-8
[38] = system: OVCAR-5
[39] = system: ACHN
[40] = system: DU-145
[41] = system: TK-10
[42] = system: SNB-75
[43] = system: U-251
[44] = system: HCT-15
[45] = system: SR
[46] = system: HT-29
[47] = system: MOLT-4
[48] = system: A549
[49] = system: SK-MEL-2
[50] = system: HCT-116
[51] = system: MDA-N
[52] = system: RXF 393
[53] = system: HCC 2998
[54] = system: UACC-62
[55] = system: NCI-H460

Measured: GI50

COc1cccc(C(C#N)NNC(=O)c2c(Cl)c(Cl)c(Cl)c(Cl)c2-c2nc3cc(C(=O)c4ccccc4)ccc3[nH]2)c1O (centres undefined)
4.06 µM: [44]
inactive: [1] 1.74 µM | [2] 3.62 µM | [3] 2.2 µM | [4] 3.55 µM | [5] 14.3 µM | [6] 2.54 µM | [7] 5.77 µM | [8] 3.64 µM | [9] 4.06 µM | [10] 5.74 µM | [11] 3 µM | [12] 2.79 µM | [13] 3.66 µM | [14] 3.59 µM | [15] 3.09 µM | [16] 4.15 µM | [17] 3.2 µM | [18] 9.02 µM | [19] 5.19 µM | [20] 2.7 µM | [21] 2.05 µM | [22] 3.22 µM | [23] 1.81 µM | [24] 2.63 µM | [25] 3.24 µM | [26] 4.63 µM | [27] 6.37 µM | [28] 9.73 µM | [29] 3.27 µM | [30] 3.03 µM | [31] 2.03 µM | [32] 6.84 µM | [33] 6.25 µM | [34] 6.01 µM | [35] 9.2 µM | [36] 2.71 µM | [37] 11.3 µM | [38] 18.6 µM | [39] 6.44 µM | [40] 6.4 µM | [41] 7.71 µM | [42] 2 µM | [43] 4.44 µM | [45] 2.91 µM | [46] 4.91 µM | [47] 2.78 µM | [48] 4.06 µM | [49] 4.05 µM | [50] 4 µM | [51] 1.68 µM | [52] 2.17 µM

Cc1c(C)c2ccc(O)cc2[nH]c1=O
inactive: [53] > 100 µM | [1] > 100 µM | [2] > 100 µM | [3] > 100 µM | [4] > 100 µM | [5] > 100 µM | [6] > 100 µM | [7] > 100 µM | [8] > 100 µM | [9] > 100 µM | [10] > 100 µM | [11] > 100 µM | [12] > 100 µM | [13] > 100 µM | [15] > 100 µM | [16] > 100 µM | [17] > 100 µM | [18] > 100 µM | [19] > 100 µM | [20] > 100 µM | [21] > 100 µM | [22] > 100 µM | [23] > 100 µM | [24] > 100 µM | [25] > 100 µM | [26] > 100 µM | [27] > 100 µM | [28] > 100 µM | [29] > 100 µM | [31] > 100 µM | [32] > 100 µM | [33] > 100 µM | [34] > 100 µM | [35] > 100 µM | [36] > 100 µM | [54] > 100 µM | [37] > 100 µM | [38] > 100 µM | [39] > 100 µM | [40] > 100 µM | [42] 98.9 µM | [43] > 100 µM | [55] > 100 µM | [45] > 100 µM | [46] > 100 µM | [47] > 100 µM | [48] > 100 µM | [49] > 100 µM | [50] > 100 µM | [51] > 100 µM | [52] > 100 µM
> 100 µM: [44]
